Results on 13 molecules are retold here after EP0991643B1 (SCHERING CORPORATION, priority 1997, dated 1998).

A value given as a limit tells only on which side of the number the result lay.

T1 sequence (Q02293 whole entry, one chain of several): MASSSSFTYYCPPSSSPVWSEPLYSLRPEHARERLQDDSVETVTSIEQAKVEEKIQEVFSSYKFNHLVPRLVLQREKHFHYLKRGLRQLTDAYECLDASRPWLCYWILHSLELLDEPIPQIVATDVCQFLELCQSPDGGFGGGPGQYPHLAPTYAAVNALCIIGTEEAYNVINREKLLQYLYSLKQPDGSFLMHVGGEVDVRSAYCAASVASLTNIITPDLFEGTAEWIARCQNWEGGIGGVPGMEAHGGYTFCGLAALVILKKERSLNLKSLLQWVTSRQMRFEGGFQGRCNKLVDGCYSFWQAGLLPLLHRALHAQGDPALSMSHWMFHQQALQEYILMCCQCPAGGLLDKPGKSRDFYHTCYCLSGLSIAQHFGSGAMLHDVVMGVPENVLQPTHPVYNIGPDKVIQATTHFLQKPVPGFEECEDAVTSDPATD

One assay addresses T1, partially purified rat brain farnesyl protein transferase (FPT) (Rattus norvegicus, UniProt Q02293+Q04631).
T1 construct: partially purified rat brain farnesyl protein transferase (FPT); from tissue; host or cells: rat brain
In words: In vitro enzyme assay: inhibition of Ras-CVLS farnesylation by farnesyl protein transferase (FPT). The following applies: H-ras (Ras-CVLS) substrate; methods of WO 95/10515 or WO 95/10516. It counts as biochemical. As to the method:
(§1) 1. In vitro enzyme assays: FPT IC50 (inhibition of farnesyl protein transferase, in vitro enzyme assay) are determined by the methods disclosed in […] or WO 95/10516. […] 2. Cell-based assay. COS IC50 values refer to the COS cells activity inhibition of Ras processing, are determined by the methods disclosed in […] or WO 95/10516.
By IC50 is commonly meant the concentration needed to halve the response being measured. Lower therefore signals inhibition by little substance. In turn, `CC(C)(C)OC(=O)NOCC(=O)N1CCC([C@H]2c3ncc(Br)cc3CCc3cc(Cl)cc(Br)c32)CC1` [Example 5, (+)-1,1-Dimethylethyl-N-[2-[4-(3,10-dibromo-8-chloro-6,11-dihydro-5H-benzo[5,6]cyclohepta[1,2-b]pyridin-11(R)-yl)-1-piperidinyl]-2-oxoethoxy]carbamate] returned an IC50 of 170 nM.

Turning to `O=C(CON=C1CCOCC1)N1CCC([C@H]2c3ncc(Br)cc3CCc3cc(Cl)cc(Br)c32)CC1` [Example 12], half-maximal inhibition (IC50) required 12 nM.

Molecule `O=C(CON=C1CCC2(CC1)OCCO2)N1CCC([C@H]2c3ncc(Br)cc3CCc3cc(Cl)cc(Br)c32)CC1` [Example 11] registered an IC50 of 24 nM.

`O=C(CON=C1CCSCC1)N1CCC([C@H]2c3ncc(Br)cc3CCc3cc(Cl)cc(Br)c32)CC1` [Example 13] gave an IC50 of 13 nM.

The molecule `C/C(=N\OCC(=O)N1CCC([C@H]2c3ncc(Br)cc3CCc3cc(Cl)cc(Br)c32)CC1)c1ccc(Cl)cc1` [Example 8, (+)-1-[[[[(E)-1-(4-chlorophenyl)ethylidene]amino]oxy]acetyl]-4-(3,10-dibromo-8-chloro-6,11-dihydro-5H-benzo[5,6]cyclohepta[1,2-b]pyridin-11(R)-yl)piperidine] showed an IC50 of over 180 nM.

As to `CC(C)=NOCC(=O)N1CCC([C@H]2c3ncc(Br)cc3CCc3cc(Cl)cc(Br)c32)CC1` [Example 2], the midpoint of inhibition, the IC50, lay at 6.5 nM.

For `CC(=O)NOCC(=O)N1CCC([C@H]2c3ncc(Br)cc3CCc3cc(Cl)cc(Br)c32)CC1` [Example 14, (+)-N-[2-[4-(3,10-dibromo-8-chloro-6,11-dihydro-5H-benzo[5,6]cyclohepta[1,2-b]pyridin-11(R)-yl)-1-piperidinyl]-2-oxoethoxy]acetamide], the IC50 was 31 nM.

On to `C/C(=N\OCC(=O)N1CCC([C@H]2c3ncc(Br)cc3CCc3cc(Cl)cc(Br)c32)CC1)c1cccs1` [Example 9, (+)-4-(3,10-dibromo-8-chloro-6,11-dihydro-5H-benzo[5,6]cyclohepta[1,2-b]pyridin-11(R)-yl)-1-[[[[(E)-1-(2-thienyl)ethylidene]amino]oxy]acetyl]piperidine], for which inhibition was half-maximal at 150 nM (IC50).

The molecule `COc1ccc(/C(C)=N/OCC(=O)N2CCC([C@H]3c4ncc(Br)cc4CCc4cc(Cl)cc(Br)c43)CC2)cc1` [Example 3] gave an IC50 of 180 nM.

`O=C(CO/N=C/c1ccccc1O)N1CCC([C@H]2c3ncc(Br)cc3CCc3cc(Cl)cc(Br)c32)CC1` [Example 7] had a half-maximal inhibitory concentration (IC50) of 370 nM.

For `CC(C)=NOCCC(=O)N1CCC([C@H]2c3ncc(Br)cc3CCc3cc(Cl)cc(Br)c32)CC1` [Example 4, (+)-4-(3,10-dibromo-8-chloro-6,11-dihydro-5H-benzo[5,6]cyclohepta[1,2-b]pyridin-11(R)-yl)-1-[3-[[(1-methylethylidene]amino]oxy]-1-oxopropyl]piperidine], the midpoint of inhibition, the IC50, lay at 54 nM.

The molecule `O=C(CO/N=C/c1cc[n+]([O-])cc1)N1CCC([C@H]2c3ncc(Br)cc3CCc3cc(Cl)cc(Br)c32)CC1` [Example 6] returned an IC50 of 3.6 nM.

The molecule `O=C(CON=C1CCCCC1)N1CCC([C@H]2c3ncc(Br)cc3CCc3cc(Cl)cc(Br)c32)CC1` [Example 10, (+)-4-(3,10-dibromo-8-chloro-6,11-dihydro-5H-benzo[5,6]cyclohepta[1,2-b]pyridin-11(R)-yl)-1-[[[[(cyclohexylidene]amino]]oxy]acetyl]piperidine] yielded an IC50 of 35 nM.

Another assay has as its system Ras processing in COS cells. Kind of assay: Cell-based assay: inhibition of Ras processing in COS cells.
Details: not given
As to the method:
as §1
`O=C(CO/N=C/c1cc[n+]([O-])cc1)N1CCC([C@H]2c3ncc(Br)cc3CCc3cc(Cl)cc(Br)c32)CC1` [Example 6] yielded an IC50 of 690 nM.
